Measured values as given in patent US10112935B2, “Indazolyl thiadiazolamines and related compounds for inhibition of Rho-associated protein kinase and the treatment of disease” (Lycera Corporation, priority 2015, dated 2018).

Legend:
[1] = biological target: GST-tagged human ROCK1 catalytic domain 1-477 (Homo sapiens (Human), UniProt Q13464); assay: Inhibition of Rho-associated protein kinase isoform 1 (LANCE Ultra ULight-CREBtide FRET kinase assay); type: biochemical; conditions: 30 μM was the highest concentration analyzed
Sequence of GST-tagged human ROCK1 catalytic domain 1-477 (Q13464 1-477): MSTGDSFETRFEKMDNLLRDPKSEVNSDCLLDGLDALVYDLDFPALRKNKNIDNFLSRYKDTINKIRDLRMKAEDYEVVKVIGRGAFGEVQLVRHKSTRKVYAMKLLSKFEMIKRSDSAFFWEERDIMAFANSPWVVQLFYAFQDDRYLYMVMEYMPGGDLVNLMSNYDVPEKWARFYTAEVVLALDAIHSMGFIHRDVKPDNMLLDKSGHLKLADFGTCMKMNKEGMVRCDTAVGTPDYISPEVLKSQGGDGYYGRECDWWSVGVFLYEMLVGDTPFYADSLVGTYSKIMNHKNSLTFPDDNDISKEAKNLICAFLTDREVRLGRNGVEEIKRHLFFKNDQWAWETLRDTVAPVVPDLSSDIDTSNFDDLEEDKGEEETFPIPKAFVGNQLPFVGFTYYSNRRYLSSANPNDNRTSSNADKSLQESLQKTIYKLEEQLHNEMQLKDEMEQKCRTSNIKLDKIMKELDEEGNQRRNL
Experimental: (§1) Exemplary compounds were tested for ability to inhibit Rho-associated protein kinase isoform 1 (ROCK1) and Rho-associated protein kinase isoform 2 (ROCK2). Assay procedures and results are described below.
(§2) Protein constructs were purified from a baculovirus expression system. The peptide substrate was fluorescent LANCE® Ultra ULight-CREBtide: […] (PerkinElmer, # TRF0107-D). […] After a 90 minute incubation at room temperature on a shaker table, the kinase reaction was stopped by addition of 10 mM EDTA, and phosphorylation of the substrate was detected by adding 1 nM LANCE® Ultra Europium-anti-phospho-CREB (ser133) antibody (PerkinElmer, # TRF0200-D) and incubating for 60 minutes on a shaker at room temperature. The flurorescence resonance energy transfer (FRET) signals were read and analyzed on an Envision™ 2103 Multilabel Reader (Perkin Elmer).

[2] = biological target: GST-tagged human ROCK2 catalytic domain 1-553 (Homo sapiens (Human), UniProt O75116); assay: Inhibition of Rho-associated protein kinase isoform 2 (LANCE Ultra ULight-CREBtide FRET kinase assay); type: biochemical; conditions: for IC50: 30 μM was the highest concentration analyzed; for Selectivity for ROCK2 over ROCK1 (IC50 ROCK1 / IC50 ROCK2): selectivity ROCK2 vs ROCK1
Sequence of GST-tagged human ROCK2 catalytic domain 1-553 (O75116 1-553): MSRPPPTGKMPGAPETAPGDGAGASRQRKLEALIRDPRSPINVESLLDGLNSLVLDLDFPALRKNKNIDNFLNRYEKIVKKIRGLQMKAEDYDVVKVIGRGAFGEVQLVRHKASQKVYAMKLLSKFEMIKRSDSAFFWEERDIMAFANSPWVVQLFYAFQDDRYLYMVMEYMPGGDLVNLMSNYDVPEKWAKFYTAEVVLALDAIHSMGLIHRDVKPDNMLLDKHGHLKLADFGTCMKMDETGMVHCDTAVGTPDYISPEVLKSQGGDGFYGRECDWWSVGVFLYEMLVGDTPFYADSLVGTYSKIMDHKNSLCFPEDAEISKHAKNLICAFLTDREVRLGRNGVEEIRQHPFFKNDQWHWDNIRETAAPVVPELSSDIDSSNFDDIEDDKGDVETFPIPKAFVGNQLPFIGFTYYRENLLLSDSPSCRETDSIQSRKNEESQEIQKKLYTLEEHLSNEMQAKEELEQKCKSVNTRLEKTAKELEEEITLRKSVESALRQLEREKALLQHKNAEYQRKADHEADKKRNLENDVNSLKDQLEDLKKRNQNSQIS
Experimental: as §1, §2

SMILES | IC50 [1] [µM] | IC50 [2] [µM] | Selectivity for ROCK2 over ROCK1 (IC50 ROCK1 / IC50 ROCK2) [2]
CC(C(=O)Nc1cc(-c2nnc(Nc3ccc4[nH]ncc4c3Cl)s2)ccn1)c1ccc(F)cc1 (centres unmarked) [Example 34, N-(4-(5-((4-Chloro-1H-indazol-5-yl)amino)-1,3,4-thiadiazol-2-yl)pyridin-2-yl)-2-(4-fluorophenyl)propanamide] | < 1 | < 1 | >50
C[C@H](N)C(=O)Nc1cccc(-c2nnc(Nc3ccc4[nH]ncc4c3Cl)s2)c1 [Example 35AA] | 1 to 15 | < 1 | >5
O=C(Nc1cccc(-c2nnc(Nc3ccc4[nH]ncc4c3Cl)s2)c1)C1CCNCC1 [Example 35AC] | 1 to 15 |  | 
O=C(Nc1cccc(-c2nnc(Nc3ccc4[nH]ncc4c3Cl)s2)c1)C1CNC1 [Example 35AD] | 1 to 15 | < 1 | >5
CC(=O)Nc1cc(-c2nnc(Nc3ccc4[nH]ncc4c3Cl)s2)ccn1.O=C(O)C(F)(F)F [Example 35AE] | < 1 | < 1 | <5
CC(=O)Cc1cccc(-c2nnc(Nc3ccc4[nH]ncc4c3Cl)s2)c1 [Example 35AF] | 1 to 15 | < 1 | >5
CC(=O)Oc1cccc(-c2nnc(Nc3ccc4[nH]ncc4c3Cl)s2)c1 [Example 35AG] | > 30 | < 1 | >100
CC(C(=O)Nc1cccc(-c2nnc(Nc3ccc4[nH]ncc4c3Cl)s2)c1)c1ccccn1 (centres unmarked) [Example 35AH] | < 1 | < 1 | <5
O=C(Cc1cccc(C(F)(F)F)n1)Nc1cccc(-c2nnc(Nc3ccc4[nH]ncc4c3Cl)s2)c1 [Example 35AI] | < 1 | < 1 | >5
OC1(c2cccc(-c3nnc(Nc4ccc5[nH]ncc5c4Cl)s3)c2)COC1 [Example 35AJ] | > 30 | < 1 | >75
N[C@@H](Cc1ccc(O)cc1)C(=O)Nc1cccc(-c2nnc(Nc3ccc4[nH]ncc4c3Cl)s2)c1.O=C(O)C(F)(F)F [Example 35AK] | < 1 | < 1 | <5
CC(=O)Nc1cccc(-c2nnc(Nc3ccc4[nH]ncc4c3C(F)(F)F)s2)c1 [Example 35AL] | 1 to 15 | < 1 | >5
CC(=O)c1cccc(-c2nnc(Nc3ccc4[nH]ncc4c3Cl)s2)c1 [Example 35AM] | > 30 | < 1 | >100
Cc1ccc(CC(=O)Nc2cccc(-c3nnc(Nc4ccc5[nH]ncc5c4Cl)s3)c2)nc1 [Example 35AO] | > 30 | < 1 | >100
O=C(Cc1ncccn1)Nc1cccc(-c2nnc(Nc3ccc4[nH]ncc4c3Cl)s2)c1 [Example 35AP] | < 1 | < 1 | <5
CC(C)(CO)NC(=O)c1cccc(-c2nnc(Nc3ccc4[nH]ncc4c3Cl)s2)c1 [Example 35AR] | 1 to 15 | < 1 | >5
O=C(Nc1cccc(-c2nnc(Nc3ccc4[nH]ncc4c3Cl)s2)c1)c1cc(O)cc(O)c1 [Example 35AS] | < 1 | < 1 | >50
COc1ncc(C(=O)Nc2cccc(-c3nnc(Nc4ccc5[nH]ncc5c4Cl)s3)c2)cn1.O=C(O)C(F)(F)F [Example 35AU] | > 30 | < 1 | >100

SMILES | IC50 [1] [µM] | IC50 [2] [µM] | Selectivity for ROCK2 over ROCK1 (IC50 ROCK1 / IC50 ROCK2) [2]
N[C@@H](Cc1ccccc1)C(=O)Nc1cccc(-c2nnc(Nc3ccc4[nH]ncc4c3Cl)s2)c1 [Example 35AV] | 1 to 15 | < 1 | >5
O=C(Nc1cccc(-c2nnc(Nc3ccc4[nH]ncc4c3Cl)s2)c1)c1ccc(F)cc1 [Example 35AW] | < 1 | < 1 | >5
O=C(O)Cn1cc(C(=O)Nc2cc(F)c(F)c(-c3nnc(Nc4ccc5[nH]ncc5c4)s3)c2)cn1 [Example 35AY] | > 30 | < 1 | >75
CC(=O)N(C)c1cccc(-c2nnc(Nc3ccc4[nH]ncc4c3Cl)s2)c1 [Example 35AZ] | > 30 | 1 to 15 | >5
O=C(Nc1cc(-c2nnc(Nc3ccc4[nH]ncc4c3Cl)s2)ccn1)N1CCOCC1 [Example 35A] | < 1 | < 1 | >5
CC(C)C[C@H](N)C(=O)Nc1cccc(-c2nnc(Nc3ccc4[nH]ncc4c3Cl)s2)c1 [Example 35BA] | < 1 | < 1 | >5
CC(=O)Nc1cc(F)c(F)c(-c2nnc(Nc3ccc4[nH]ncc4c3Cl)s2)c1.O=C(O)C(F)(F)F [Example 35BB] | > 30 | < 1 | >100
CC(=O)Nc1cccc(-c2nnc(N(C)c3ccc4[nH]ncc4c3Cl)s2)c1 [Example 35BC] | > 30 | < 1 | >75
O=C(Cc1ncc[nH]1)Nc1cccc(-c2nnc(Nc3ccc4[nH]ncc4c3Cl)s2)c1 [Example 35BD] | > 30 | < 1 | >100
CCOc1ccc(CC(=O)Nc2cccc(-c3nnc(Nc4ccc5[nH]ncc5c4Cl)s3)c2)cc1 [Example 35BE] | > 30 | < 1 | >100
NC(Cc1ccc(Cl)cc1)C(=O)Nc1cccc(-c2nnc(Nc3ccc4[nH]ncc4c3Cl)s2)c1 (centres unmarked) [Example 35BF] | 1 to 15 | < 1 | >5
O=C(Cc1ccon1)Nc1cccc(-c2nnc(Nc3ccc4[nH]ncc4c3Cl)s2)c1 [Example 35BG] | > 30 | < 1 | >100
Cn1cc(CC(=O)Nc2cccc(-c3nnc(Nc4ccc5[nH]ncc5c4Cl)s3)c2)cn1 [Example 35BH] | < 1 | < 1 | >100
Cc1cnn(CC(=O)Nc2cccc(-c3nnc(Nc4ccc5[nH]ncc5c4Cl)s3)c2)c1 [Example 35BI] | 1 to 15 | < 1 | >100
CC1(C(=O)Nc2cccc(-c3nnc(Nc4ccc5[nH]ncc5c4Cl)s3)c2)CCCCC1 [Example 35L] | 1 to 15 |  | 
CN1CC(C(=O)Nc2cccc(-c3nnc(Nc4ccc5[nH]ncc5c4Cl)s3)c2)C1 [Example 35X] | 1 to 15 |  | 
CCOC(=O)N(c1nnc(-c2cccc(NC(=O)Cc3ccc(F)cc3)c2)s1)c1ccc2[nH]ncc2c1Cl [Example 54A] |  | 1 to 15 | 
Clc1c(Nc2nnc(-c3cccc4c3ncn4CCN3CCCC3)s2)ccc2[nH]ncc12 [Example 56A] |  | 1 to 15 | 
